ChEMBL document CHEMBL4828717, “Synthetic cajaninstilbene acid derivatives eradicate methicillin-resistant Staphylococcus aureus persisters and biofilms” (Eur J Med Chem, 2021)
Activity calls are given as the source filed them. The calls are words filed in the database; no cut-off is given here.

Columns and labels:
[1] = Toxicity in BALB/c mouse infected with methicillin-resistant Staphylococcus aureus ATCC 43300 assessed as damage in spleen at 50 to 100 mg/kg, sc administered every 24 hrs for 4 days by H&E staining based light microscopic analysis; type: organism-based; conditions: in vivo, dose 50-100 mg/kg
[2] = Toxicity in BALB/c mouse infected with methicillin-resistant Staphylococcus aureus ATCC 43300 assessed as damage in heart at 50 to 100 mg/kg, sc administered every 24 hrs for 4 days by H&E staining based light microscopic analysis; type: organism-based; conditions: in vivo, dose 50-100 mg/kg
[3] = Toxicity in BALB/c mouse infected with methicillin-resistant Staphylococcus aureus ATCC 43300 assessed as damage in lung at 50 to 100 mg/kg, sc administered every 24 hrs for 4 days by H&E staining based light microscopic analysis; type: organism-based; conditions: in vivo, dose 50-100 mg/kg
[4] = Toxicity in BALB/c mouse infected with methicillin-resistant Staphylococcus aureus ATCC 43300 assessed as damage in liver at 50 to 100 mg/kg, sc administered every 24 hrs for 4 days by H&E staining based light microscopic analysis; type: organism-based; conditions: in vivo, dose 50-100 mg/kg
[5] = Toxicity in BALB/c mouse infected with methicillin-resistant Staphylococcus aureus ATCC 43300 assessed as damage in kidney at 50 to 100 mg/kg, sc administered every 24 hrs for 4 days by H&E staining based light microscopic analysis; type: organism-based; conditions: in vivo, dose 50-100 mg/kg
Staphylococcus aureus [6] = assay: Antibacterial activity against methicillin resistant Staphylococcus aureus ATCC 43300 persisters assessed as reduction in colony formation at 40 ug/ml incubated for 8 hrs by colony counting method; type: functional, organism-based; conditions: dose 40.0 µg/ml
Staphylococcus aureus [7] = assay: Antibacterial activity against Staphylococcus aureus ATCC 25923 assessed as reduction in microbial growth after 16 to 18 hrs by microbroth dilution method; type: functional; conditions: time 16-18 hrs
Staphylococcus aureus [8] = assay: Antibacterial activity against methicillin resistant Staphylococcus aureus ATCC 43300 assessed as reduction in microbial growth after 16 to 18 hrs by microbroth dilution method; type: functional; conditions: time 16-18 hrs
Staphylococcus aureus [9] = assay: Antibacterial activity against methicillin resistant Staphylococcus aureus ATCC 62202 assessed as reduction in microbial growth after 16 to 18 hrs by microbroth dilution method; type: functional; conditions: time 16-18 hrs
Staphylococcus aureus [10] = assay: Antibacterial activity against methicillin resistant Staphylococcus aureus ATCC 52056 assessed as reduction in microbial growth after 16 to 18 hrs by microbroth dilution method; type: functional; conditions: time 16-18 hrs
Staphylococcus aureus [11] = assay: Antibacterial activity against methicillin resistant Staphylococcus aureus ATCC513045 assessed as reduction in microbial growth after 16 to 18 hrs by microbroth dilution method; type: functional; conditions: time 16-18 hrs
Staphylococcus aureus [12] = assay: Antibacterial activity against methicillin resistant Staphylococcus aureus ATCC515992 assessed as reduction in microbial growth after 16 to 18 hrs by microbroth dilution method; type: functional; conditions: time 16-18 hrs
Staphylococcus aureus [13] = assay: Antibacterial activity against methicillin resistant Staphylococcus aureus ATCC49800 assessed as reduction in microbial growth after 16 to 18 hrs by microbroth dilution method; type: functional; conditions: time 16-18 hrs
Staphylococcus aureus [14] = assay: Antibacterial activity against methicillin resistant Staphylococcus aureus ATCC49025 assessed as reduction in microbial growth after 16 to 18 hrs by microbroth dilution method; type: functional; conditions: time 16-18 hrs
Staphylococcus aureus [15] = assay: Antibacterial activity against methicillin resistant Staphylococcus aureus ATCC48073 assessed as reduction in microbial growth after 16 to 18 hrs by microbroth dilution method; type: functional; conditions: time 16-18 hrs
Staphylococcus aureus [16] = assay: Antibacterial activity against methicillin resistant Staphylococcus aureus ATCC48966 assessed as reduction in microbial growth after 16 to 18 hrs by microbroth dilution method; type: functional; conditions: time 16-18 hrs
Staphylococcus aureus [17] = assay: Antibacterial activity against methicillin resistant Staphylococcus aureus ATCC49008 assessed as reduction in microbial growth after 16 to 18 hrs by microbroth dilution method; type: functional; conditions: time 16-18 hrs
Staphylococcus aureus [18] = assay: Antibacterial activity against methicillin resistant Staphylococcus aureus ATCC48706 assessed as reduction in microbial growth after 16 to 18 hrs by microbroth dilution method; type: functional; conditions: time 16-18 hrs
Escherichia coli = assay: Antibacterial activity against Escherichia coli ATCC25922 assessed as reduction in microbial growth after 16 to 18 hrs by microbroth dilution method; type: functional; conditions: ATCC 25922, time 16-18 hrs
Pseudomonas aeruginosa = assay: Antibacterial activity against Pseudomonas aeruginosa ATCC27853 assessed as reduction in microbial growth after 16 to 18 hrs by microbroth dilution method; type: functional; conditions: time 16-18 hrs
Enterococcus faecalis = assay: Antibacterial activity against Enterococcus faecalis ATCC29212 assessed as reduction in microbial growth after 16 to 18 hrs by microbroth dilution method; type: functional; conditions: ATCC 29212, time 16-18 hrs
RAW264.7 = assay: (§1) Cytotoxicity against mouse RAW264.7 cells assessed as cell viability at 10 ug/ml measured after 24 hrs by MTT assay; type: cell-based; conditions: raw264.7, 24 h, dose 10 µg/ml
L02 = assay: Cytotoxicity against human L02 cells assessed as cell viability at 10 ug/ml measured after 24 hrs by MTT assay; type: cell-based; conditions: l02, 24 h, dose 10 µg/ml
[19] = as §1; type: cell-based; conditions: RAW264.7 cells, at 10 µg/mL, read-out: Activity

SMILES	MIC (Staphylococcus aureus [7]) [µg/mL]	MIC (Staphylococcus aureus [8]) [µg/mL]	MIC (Staphylococcus aureus [9]) [µg/mL]	MIC (Staphylococcus aureus [10]) [µg/mL]	MIC (Staphylococcus aureus [11]) [µg/mL]	MIC (Staphylococcus aureus [12]) [µg/mL]	MIC (Staphylococcus aureus [13]) [µg/mL]	MIC (Staphylococcus aureus [14]) [µg/mL]	MIC (Staphylococcus aureus [15]) [µg/mL]	MIC (Staphylococcus aureus [16]) [µg/mL]	MIC (Staphylococcus aureus [17]) [µg/mL]	MIC (Staphylococcus aureus [18]) [µg/mL]	MIC (Escherichia coli) [µg/mL]	MIC (Pseudomonas aeruginosa) [µg/mL]	MIC (Enterococcus faecalis) [µg/mL]	Activity (RAW264.7)	Activity (L02)	other results
CN[C@H](CC(C)C)C(=O)N[C@H]1C(=O)N[C@@H](CC(N)=O)C(=O)N[C@H]2C(=O)N[C@H]3C(=O)N[C@H](C(=O)N[C@H](C(=O)O)c4cc(O)cc(O)c4-c4cc3ccc4O)[C@H](O)c3ccc(c(Cl)c3)Oc3cc2cc(c3O[C@@H]2O[C@H](CO)[C@@H](O)[C@H](O)[C@H]2O[C@H]2C[C@](C)(N)[C@H](O)[C@H](C)O2)Oc2ccc(cc2Cl)[C@H]1O [VANCOMYCIN]	–	–	–	–	–	–	–	–	–	–	–	–	–	–	–	–	–	Activity [1]: Non-Toxic; Activity [2]: Non-Toxic; Activity [3]: Non-Toxic; Activity [4]: Non-Toxic; Activity [5]: Non-Toxic
CCCCCCCCCC(=O)N[C@@H](Cc1c[nH]c2ccccc12)C(=O)N[C@H](CC(N)=O)C(=O)N[C@@H](CC(=O)O)C(=O)N[C@@H]1C(=O)NCC(=O)N[C@@H](CCCN)C(=O)N[C@@H](CC(=O)O)C(=O)N[C@H](C)C(=O)N[C@@H](CC(=O)O)C(=O)NCC(=O)N[C@H](CO)C(=O)N[C@@H]([C@H](C)CC(=O)O)C(=O)N[C@@H](CC(=O)c2ccccc2N)C(=O)O[C@@H]1C	–	–	–	–	–	–	–	–	–	–	–	–	–	–	–	–	–	Activity (Staphylococcus aureus [6]): inactive
CC(C)=CCc1c(OC(C)C)cc(/C=C/c2ccc(C(F)(F)F)cc2)c(C(=O)O)c1O	2	1	2	2	2	2	2	2	2	2	2	2	> 32	> 32	> 32	Toxic	Toxic	–
CCC(C)Oc1cc(/C=C/c2ccc(F)cc2)c(C(=O)O)c(O)c1CC=C(C)C (stereo unspecified)	2	2	2	2	2	4	4	4	4	4	4	4	> 32	> 32	> 32	Toxic	Toxic	–
CCOc1cc(/C=C/c2ccc(C(F)(F)F)cc2)c(C(=O)O)c(O)c1CC=C(C)C	2	1	1	1	2	2	2	2	2	2	2	2	> 32	> 32	> 32	Toxic	Toxic	–
CC(C)=CCc1c(OC2CCOCC2)cc(/C=C/c2ccc(F)cc2)c(C(=O)O)c1O	16	1	32	8	16	32	16	16	16	16	16	16	> 32	> 32	> 32	–	Toxic	viability at 24 h, 10 ug/ml [19]: > 60%
CC(C)=CCc1c(OCCCF)cc(/C=C/c2ccc(F)cc2)c(C(=O)O)c1O	4	4	4	2	4	4	4	4	4	4	4	4	> 32	> 32	> 32	Toxic	Toxic	–
CC(C)=CCc1c(OCC2CC2)cc(/C=C/c2ccc(F)cc2)c(C(=O)O)c1O	2	2	4	2	2	2	2	2	2	2	2	2	> 32	> 32	> 32	Toxic	Toxic	–
CC(C)=CCc1c(OCc2ccccc2)cc(/C=C/c2ccc(F)cc2)c(C(=O)O)c1O	4	32	4	4	4	4	4	4	4	4	4	4	> 32	> 32	> 32	Toxic	Toxic	–
CCCC(CC)Oc1cc(/C=C/c2ccc(F)cc2)c(C(=O)O)c(O)c1CC=C(C)C (stereo unspecified)	2	1	2	2	2	2	2	2	4	2	2	4	> 32	> 32	> 32	Toxic	Toxic	–
CC(C)=CCc1c(OCCCC(F)(F)F)cc(/C=C/c2ccc(F)cc2)c(C(=O)O)c1O	4	4	4	4	4	4	4	4	4	4	4	4	> 32	> 32	> 32	Toxic	Toxic	–
CO[C@H]1/C=C/O[C@@]2(C)Oc3c(C)c(O)c4c(O)c(c(/C=N/N5CCN(C)CC5)c(O)c4c3C2=O)NC(=O)/C(C)=C\C=C\[C@H](C)[C@H](O)[C@@H](C)[C@@H](O)[C@@H](C)[C@H](OC(C)=O)[C@@H]1C	–	–	–	–	–	–	–	–	–	–	–	–	–	–	–	–	–	Activity (Staphylococcus aureus [6]): inactive
O=C(O)c1cn(C2CC2)c2cc(N3CCNCC3)c(F)cc2c1=O	–	–	–	–	–	–	–	–	–	–	–	–	–	–	–	–	–	Activity (Staphylococcus aureus [6]): inactive
